Measured values reported in PMC10603954, “Bacterial Tyrosinase Inhibition, Hemolytic and Thrombolytic Screening, and In Silico Modeling of Rationally Designed Tosyl Piperazine-Engrafted Dithiocarbamate Derivatives” (Biomedicines, 2023).
Where two headings read alike, the source gives them in different places.

Tests used:
[1] = biological target: bacterial tyrosinase (Bacillus subtilis NA2); test: Tyrosinase inhibition, spectrophotometric L-Dopa assay; type: biochemical; details: for IC50: bacterial tyrosinase, L-Dopa substrate, PBS pH 6.8; for optical density at varied incubation times: incubation 10, 20 and 30 min (Figure 6)
Method: IC50 values were obtained using a spectrophotometer assay. The protocol involved the addition of 2 mL of 1/2 mM L-Dopa in a 67.0 mM PBS (phosphate buffer saline) solution of pH 6.8 to the 800 µL solution of target molecules in DMSO. A total of 0.1 mL of the enzyme solution (tyrosinase) was dissolved in this mixture, and the starting rate of linear increase was measured in the optical density after 10, 20, and 30 min of incubation time, respectively. Thus, optical density increases or decreases with the presence of dopachrome.
The inhibition potential of these derivatives was also studied at varied incubation times.

clot = test: Thrombolytic activity (clot lysis); design: species or system albino mice; details: 100 µL sample in DMSO, 37 °C, 3 h
From the text: Blood samples were collected from albino mice and relocated to numerous cleaned and weighed-up eppendorf tubes. […] Blood serum was cast-off from these tubes and weighed in the eppendorf tubes to calculate the preliminary weight of the clot (clot weight = weight of the eppendorf with the clot minus the weight of the empty eppendorf). […] In this methodology, ABTS was used as a positive control, while water was used as a negative control. Serum was again removed and weighed in the eppendorf tubes to measure clot lysis.

Hemolytic activity = type: cell-based, albino mice; details: albino, mouse, red blood cells (RBC pellet from blood), pH 7.4; 20 µL sample (10 mg/mL) with 180 µL RBC, 37 °C, half an hour
Method: A blood sample of 5 mL of volume from albino mice was taken and subjected to centrifugation at 1000 rpm for 5 min. RBC pellets were secluded and splashed 3–4 times using chilled buffer solutions that had pH values of 7.4, such as the phosphate buffer saline (PBS). A solution sample in a volume of 20 µL (10 mg/mL) was taken and added to a 180 µL RBC pellet. […] A sample tube was taken from the incubator and lowered to room temperature in an ice bath for 5 min. The sample was again centrifuged at 13,000 rpm for 5 min. A total of 100 µL of supernatant was collected from each tube and diluted with the ice-cold phosphate buffered saline.

[2] = biological target: bacterial tyrosinase (Bacillus subtilis NA2); design: method as in PMID 36142889; details: reference standard; read-out: IC50 (µM) Tyrosinase Inhibition; cited from earlier work
Tyrosinase = details: Figure 3; no reference given; read-out: Tyrosinase inhibtors IC50; cited from earlier work

IC50 [1] [µM]	optical density at varied incubation times [1]	melting point [°C]	SMILES	% Thrombolysis (clot) [%]	hemolysis at 0.5 h, 1 mg/mL (Hemolytic activity) [%]	IC50 [2] [µM]	IC50 (Tyrosinase) [µM]
11.11 ± 0.1	linear decrease in optical density		Cc1ccc(S(=O)(=O)N2CCN(C(=S)SCC(=O)Nc3ccc(C)c(C)c3)CC2)cc1 [Compound 4j, 2-((3,4-Dimethylphenyl)amino)-2-oxoethyl 4-tosylpiperazine-1-carbodithioate]	56.6 ± 0.23	2.56 ± 0.3		
10.3 ± 0.26			Cc1ccc(S(=O)(=O)N2CCN(C(=S)SCC(=O)Nc3ccc(F)cc3)CC2)cc1 [Compound 4f, 2-((4-Fluorophenyl)amino)-2-oxoethyl 4-tosylpiperazine-1-carbodithioate]	56.53 ± 0.55	4.53 ± 0.35		
8.1 ± 0.3			Cc1ccc(S(=O)(=O)N2CCN(C(=S)SCC(=O)Nc3ccccc3F)CC2)cc1 [Compound 4c, 2-((2-Fluorophenyl)amino)-2-oxoethyl 4-tosylpiperazine-1-carbodithioate]	56.76 ± 0.15	6.6 ± 0.37		
7.24 ± 0.15	linear decrease in optical density	185	Cc1ccc(S(=O)(=O)N2CCN(C(=S)SCC(=O)Nc3ccc(C)cc3C)CC2)cc1 [Compound 4g, 2-((2,4-Dimethylphenyl)amino)-2-oxoethyl 4-tosylpiperazine-1-carbodithioate]	55.26 ± 0.15	1.53 ± 0.35		
11.1 ± 0.4			Cc1ccc(S(=O)(=O)N2CCN(C(=S)SCC(=O)Nc3ccc(Cl)cc3)CC2)cc1 [Compound 4e, 2-((4-Chlorophenyl)amino)-2-oxoethyl 4-tosylpiperazine-1-carbodithioate]	67.3 ± 0.2	7.5 ± 0.4		
8.01 ± 0.11	highest optical density	180	Cc1ccc(S(=O)(=O)N2CCN(C(=S)SCC(=O)Nc3ccccc3Cl)CC2)cc1 [Compound 4b, 2-((2-Chlorophenyl)amino)-2-oxoethyl 4-tosylpiperazine-1-carbodithioate]	54.43 ± 0.23	0.29 ± 0.01		
13.25 ± 0.11	linear decrease in optical density	190	COc1ccc(OC)c(NC(=O)CSC(=S)N2CCN(S(=O)(=O)c3ccc(C)cc3)CC2)c1 [Compound 4h, 2-((2,5-Dimethoxyphenyl)amino)-2-oxoethyl 4-tosylpiperazine-1-carbodithioate]	60.83 ± 0.14	11.3 ± 0.22		
6.88 ± 0.11		175	COc1ccc(NC(=O)CSC(=S)N2CCN(S(=O)(=O)c3ccc(C)cc3)CC2)cc1 [Compound 4d, 2-((4-Methoxyphenyl)amino)-2-oxoethyl 4-tosylpiperazine-1-carbodithioate]	52.4 ± 0.2	15.6 ± 0.5		
34.8 ± 0.99	linear decrease in optical density		Cc1ccc(S(=O)(=O)N2CCN(C(=S)SCC(=O)Nc3ccccc3)CC2)cc1 [Compound 4a, 2-Oxo-2-(phenylamino)ethyl 4-tosylpiperazine-1-carbodithioate]	62.3 ± 0.41	0.55 ± 0.03		
19.2 ± 0.47	linear decrease in optical density		Cc1ccc(S(=O)(=O)N2CCN(C(=S)SCC(=O)Nc3ccc(Cl)c(Cl)c3)CC2)cc1 [Compound 4i, 2-((3,4-Dichlorophenyl)amino)-2-oxoethyl 4-tosylpiperazine-1-carbodithioate]	54.38 ± 0.53	12.8 ± 0.35		

More lines, now with the values behind:

SMILES	IC50 [1] [µM]	optical density at varied incubation times [1]	melting point [°C]	% Thrombolysis (clot) [%]	hemolysis at 0.5 h, 1 mg/mL (Hemolytic activity) [%]	IC50 [2] [µM]	IC50 (Tyrosinase) [µM]
O=C1O[C@H]([C@@H](O)CO)C(O)=C1O [Ascorbic Acid]						11.5 ± 1	
O=S(=O)(c1ccc(CN2CCN(c3ccccc3)CC2)cc1)N1CCCCC1 [Compound 2f]							0.06
O=C(c1ccccc1)N1CCN(Cc2ccc(F)cc2)CC1 [Compound 2d]							13.3
O=c1cc(CO)occ1O [Kojic Acid, Kojic acid, reference compound]	30.3 ± 0.75						
O=C(c1cccc(Cl)c1[N+](=O)[O-])N1CCN(Cc2ccc(F)cc2)CC1 [Compound 2e]							0.18
COc1cccc(/C=C/C(=O)N2CCN(c3ccc(F)c(Cl)c3)CC2)c1Cl [Compound 2h]							0.12
CCn1c(=NN=c2sc3cc(S(=O)(=O)O)ccc3n2CC)sc2cc(S(=O)(=O)O)ccc21 [ABTS, 2,2′-azino-bis(3-ethylbenzothiazoline-6-sulfonic acid), reference compound]				80			
Cc1ccc(NC(=O)CCCN2CCN(C/C=C/c3ccccc3)CC2)c(C)c1 [Compound 2g]							0.01
